# Test results: article PMC6599804, “N^ɛ-acetyl lysine derivatives with zinc binding groups as novel HDAC inhibitors” (Royal Society Open Science, 2019)
# Legend:
# [1] = test system: HDACs (HeLa nuclear extract); assay: HDAC deacetylation inhibition assay, HeLa nuclear extract with BOC-Ac-Lys-AMC substrate; assay type: biochemical, human; details: BOC-Ac-Lys-AMC substrate; for HDAC inhibition (%): compound at 100 µM; for IC50: read-out: IC50 values, HeLa nuclear extract
# Protocol: With these N^ɛ-acetyl lysine derivatives in hand (schemes 1–3), we then did the pilot screening for general HDAC inhibitory activity at a compound's concentration of 100 µM. All tested compounds were subjected to the inhibition assay against the HDAC deacetylation reaction by using a HeLa nuclear extract as a source of HDACs and BOC-Ac-Lys-AMC as a substrate.
# HDACS inhibition assay in vitro
# In vitro HDACs inhibition assays were conducted as previously described. In brief, 4 μL of […]
# (1μL), then fluorogenic substrate Boc-Lys(acetyl)-AMC (100 μM) and Buffer A (50 mM Tis-HCl pH=8.0, 150 mM NaCl, 30 mM KCl, 10 mM MgCl2) were added. After incubation at 37℃ for 1h, […]
# And then incubation at 37℃ for 1h, the mixture was stopped by the addition of 50 μL of Buffer B (200mM HCl/300 mM Acetic acid), fluorescence intensity was measured using a microplate reader at excitation and emission wavelengths of 360 nm and 460 nm. The inhibition ratios were calculated from the fluorescence intensity readings of tested wells relative to those of control wells, […]
# regression analysis of the concentration/inhibition data. All experiments were done in triplicate. […]
# K562 cells = assay: MTS cell proliferation assay, K562; assay type: cell-based, human
# Protocol: (§1) Because of the great anti-tumour potential of HDAC inhibitors, we did the antiproliferative evaluation of 18c against K562 cells, A549 cells and HepG2 cells using MTS assay as previously described. […]
# (§2) The rate of cell survival under the action of test substances was evaluated by an improved MTS assay as previously described. In brief, A549 (5000 cells / well) , HepG2 (5000 cells / well), HEK293 (5000 cells / well) and K562 (1 ×10^4 cells/well) cell lines were seeded into 96-well plates in 100 µL medium. After overnight incubation, each well was added with different […]
# (§3) 48 hours 5ul of MTS reagent solution was added into each well and the cells were incubated for another 4 hours at 37℃ under 5% CO2 environment. The absorbance was measured at 490 nm in […]
# (§4) a Microplate to determine the cell viability. The absorbance was directly proportional to the number of viable cells. All experiments were done in triplicate. […]
# (§5) calculate and compare their selective index. […]
# (§6) Unbound antibodies
# A549 cells = assay: MTS cell proliferation assay, A549; assay type: cell-based, human
# Protocol: as §1, §2, §3, §4, §5, §6
# HepG2 cells = assay: MTS cell proliferation assay, HepG2; assay type: cell-based, human
# Protocol: as §1, §2, §3, §4, §5, §6
# HEK293 = assay: MTS cell proliferation assay, HEK293 (non-cancerous kidney cell); assay type: cell-based; details: Homo sapiens, HEK293; MTS assay, 48 hours; normal cells
# Protocol: as §1, §2, §3, §4, §5, §6
# HDAC8 = target: T1, HDAC8 (Homo sapiens, UniProt Q9BY41); assay: HDAC subtype selectivity assay with subtype substrate, HDAC8; assay type: biochemical; details: read-out: HDAC Inhibition (%) HDAC8
# T1 construct: Hela nuclear extract; endogenous in cells; host or cells: HeLa nuclear extract
# T1 sequence (Q9BY41 1-377): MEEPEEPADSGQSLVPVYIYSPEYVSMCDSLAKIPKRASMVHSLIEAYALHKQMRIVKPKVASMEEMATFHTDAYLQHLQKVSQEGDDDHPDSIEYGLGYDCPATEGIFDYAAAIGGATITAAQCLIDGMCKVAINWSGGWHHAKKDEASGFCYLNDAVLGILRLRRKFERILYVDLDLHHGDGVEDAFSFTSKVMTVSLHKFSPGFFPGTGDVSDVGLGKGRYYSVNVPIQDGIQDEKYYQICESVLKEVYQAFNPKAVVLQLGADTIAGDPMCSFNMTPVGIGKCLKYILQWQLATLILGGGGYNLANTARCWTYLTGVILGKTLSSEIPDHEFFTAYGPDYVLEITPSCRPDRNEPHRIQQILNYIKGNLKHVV
# [2] = Homo sapiens, MTS assay, 48 hours
Compound,HDAC inhibition (%) [1] [%],further results
O=C(O)CCC(=O)NCCCC[C@H](NC(=O)OCc1ccccc1)C(=O)Nc1ccccc1 [Compound 9],37.5 ± 0.6,–
O=C(O)/C=C/C(=O)NCCCC[C@H](NC(=O)OCc1ccccc1)C(=O)Nc1ccccc1 [Compound 10],38.7 ± 1.0,–
O=C(CCC(=O)NCCCC[C@H](NC(=O)OCc1ccccc1)C(=O)Nc1ccccc1)NO [Compound 11],86.0 ± 3.0,IC50 [1]: 25.4 ± 1.35 µM
Nc1ccccc1NC(=O)CCC(=O)NCCCC[C@H](NC(=O)OCc1ccccc1)C(=O)Nc1ccccc1 [Compound 12],30.7 ± 3.7,–
O=C(/C=C/C(=O)NCCCC[C@H](NC(=O)OCc1ccccc1)C(=O)Nc1ccccc1)NO [Compound 13],39.3 ± 3.1,–
O=C(N[C@@H](CCCCNC(=O)c1cccnc1)C(=O)Nc1ccccc1)OCc1ccccc1 [Compound 14a],39.6 ± 0.4,–
Cc1ccc(C(=O)NCCCC[C@H](NC(=O)OCc2ccccc2)C(=O)Nc2ccccc2)cn1 [Compound 14b],39.2 ± 0.8,–
O=C(/C=C/c1cccnc1)NCCCC[C@H](NC(=O)OCc1ccccc1)C(=O)Nc1ccccc1 [Compound 14c],51.0 ± 1.0,–
O=C(N[C@@H](CCCCNC(=O)c1ccc[nH]1)C(=O)Nc1ccccc1)OCc1ccccc1 [Compound 14d],48.4 ± 4.4,–
O=C(N[C@@H](CCCCNC(=O)c1ccco1)C(=O)Nc1ccccc1)OCc1ccccc1 [Compound 14e],54.0 ± 1.9,–
O=C(N[C@@H](CCCCNC(=O)c1cccs1)C(=O)Nc1ccccc1)OCc1ccccc1 [Compound 14f],45.0 ± 0.4,–
O=C(CS)NCCCC[C@H](NC(=O)OCc1ccccc1)C(=O)Nc1ccccc1 [Compound 14g],10.3 ± 4.9,–
O=C(N[C@@H](CCCCNC(=O)c1cnc2ccccc2c1)C(=O)Nc1ccccc1)OCc1ccccc1 [Compound 14h],28.3 ± 4.6,–
O=C(N[C@@H](CCCCNC(=O)c1ccc2ncccc2c1)C(=O)Nc1ccccc1)OCc1ccccc1 [Compound 14i],36.8 ± 1.1,–
O=C(N[C@@H](CCCCNC(=O)c1c[nH]c2ccccc12)C(=O)Nc1ccccc1)OCc1ccccc1 [Compound 14j],12.2 ± 6.5,–
O=C(N[C@@H](CCCCNC(=O)C1=CCc2ccccc21)C(=O)Nc1ccccc1)OCc1ccccc1 [Compound 14k],22.4 ± 0.2,–
O=C(N[C@@H](CCCCNCc1c[nH]c2ccccc12)C(=O)Nc1ccccc1)OCc1ccccc1 [Compound 14l],3.1 ± 0.5,–

Compound,HDAC inhibition (%) [1] [%],further results
O=C(N[C@@H](CCCCNC(=O)c1coc2ccccc12)C(=O)Nc1ccccc1)OCc1ccccc1 [Compound 14m],14.3 ± 0.5,–
O=C(N[C@@H](CCCCNC(=O)c1csc2ccccc12)C(=O)Nc1ccccc1)OCc1ccccc1 [Compound 14n],16.2 ± 2.0,–
O=C(CC1SC(=O)NC1=O)NCCCC[C@H](NC(=O)OCc1ccccc1)C(=O)Nc1ccccc1 (stereo partly drawn) [Compound 14o],48.6 ± 0.5,–
CC(C)(C)OC(=O)N[C@@H](Cc1c[nH]c2ccccc12)C(=O)NCCCC[C@H](NC(=O)OCc1ccccc1)C(=O)Nc1ccccc1 [Compound 14p],24.7 ± 2.8,–
N[C@@H](Cc1c[nH]c2ccccc12)C(=O)NCCCC[C@H](NC(=O)OCc1ccccc1)C(=O)Nc1ccccc1 [Compound 14q],36.2 ± 0.4,–
COC(=O)CC(=O)NCCCC[C@H](NC(=O)OCc1ccccc1)C(=O)Nc1ccccc1 [Compound 15a],19.4 ± 10.9,–
COC(=O)CCCCC(=O)NCCCC[C@H](NC(=O)OCc1ccccc1)C(=O)Nc1ccccc1 [Compound 15b],2.9 ± 0.8,–
COC(=O)CCCCCCC(=O)NCCCC[C@H](NC(=O)OCc1ccccc1)C(=O)Nc1ccccc1 [Compound 15c],7.1 ± 0.3,–
O=C(O)CC(=O)NCCCC[C@H](NC(=O)OCc1ccccc1)C(=O)Nc1ccccc1 [Compound 16a],4.0 ± 1.7,–
O=C(O)CCCCC(=O)NCCCC[C@H](NC(=O)OCc1ccccc1)C(=O)Nc1ccccc1 [Compound 16b],4.3 ± 0.5,–
O=C(O)CCCCCCC(=O)NCCCC[C@H](NC(=O)OCc1ccccc1)C(=O)Nc1ccccc1 [Compound 16c],1.1 ± 0.4,"antiproliferative activity (K562 cells; 500 µM, MTS): no obvious antiproliferative activities; IC50 (K562 cells; [2]): > 500 µM; antiproliferative activity (A549 cells; 500 µM, MTS): no obvious antiproliferative activities; IC50 (A549 cells; [2]): > 500 µM; antiproliferative activity (HepG2 cells; 500 µM, MTS): no obvious antiproliferative activities; IC50 (HepG2 cells; [2]): > 500 µM; IC50 (HEK293): > 500 µM"
Nc1ccccc1NC(=O)CC(=O)NCCCC[C@H](NC(=O)OCc1ccccc1)C(=O)Nc1ccccc1 [Compound 17a],7.0 ± 0.4,–
Nc1ccccc1NC(=O)CCCCC(=O)NCCCC[C@H](NC(=O)OCc1ccccc1)C(=O)Nc1ccccc1 [Compound 17b],69.3 ± 3.4,–
Nc1ccccc1NC(=O)CCCCCCC(=O)NCCCC[C@H](NC(=O)OCc1ccccc1)C(=O)Nc1ccccc1 [Compound 17c],50.6 ± 6.9,–
O=C(CCCCC(=O)NCCCC[C@H](NC(=O)OCc1ccccc1)C(=O)Nc1ccccc1)NO [Compound 18b],99.9 ± 0.9,IC50 [1]: 10.4 ± 3.86 µM
"O=C(CCCCCCC(=O)Nc1ccccc1)NO [SAHA (1), Vorinostat, reference compound]",–,inhibition at 1 µM (HDAC8): 41.19 ± 0.18%
